Experiments:
[1] = Compound cytotoxicity, XTT-based colorimetric assay; assay type: cell-based; settings: human; uninfected MT2 cells, day 4, XTT
Description: Compound cytotoxicity and the corresponding CC50 values were determined using the same protocol as described in the antiviral assay except that uninfected cells were used. Cytotoxicity was assessed on day 4 in uninfected MT2 cells by using a XTT (2,3-bis[2-Methoxy-4-nitro-5-sulfophenyl]-2H-tetrazolium-5-carboxyanilide inner salt)-based colorimetric assay (Sigma-Aldrich, St Louis, Mo.).

[2] = system: recombinant NL4-3 virus (Renilla luciferase) in MT-2 cells; assay: HIV cell culture assay (antiviral activity, luciferase readout in MT-2 cells); assay type: cell-based; settings: NL43
Description: HIV cell culture assay—MT-2 cells, 293T cells and the proviral DNA clone of NL4-3 virus were obtained from the NIH AIDS Research and Reference Reagent Program. MT-2 cells were propagated in RPMI 1640 media supplemented with 10% heat inactivated fetal bovine serum (FBS), […]. The 293T cells were propagated in DMEM media supplemented with 10% heat inactivated FBS, […]. A recombinant NL4-3 proviral clone, in which a section of the nef gene was replaced with the Renilla luciferase gene, was used to make the reference virus used in these studies. The recombinant virus was prepared through transfection of the recombinant NL4-3 proviral clone into 293T cells using Transit-293 Transfection Reagent from Mirus Bio LLC (Madison, Wis.). Supernatant was harvested after 2-3 days and the amount of virus present was titered in MT-2 cells using luciferase enzyme activity as a marker by measuring luciferase enzyme activity. Luciferase was quantitated using the EnduRen Live Cell Substrate from Promega (Madison, Wis.). Antiviral activities of compounds toward the recombinant virus were quantified by measuring luciferase activity in MT-2 cells infected for 4-5 days with the recombinant virus in the presence of serial dilutions of the compound.
The 50% effective concentration (EC50) was calculated by using the exponential form of the median effect equation where (Fa)=1/[1+(ED50/drug conc.)m] (Johnson V A, Byington R T. Infectivity Assay. In Techniques in HIV Research. ed. Aldovini A, Walker B D. 71-76. New York: Stockton Press. 1990). The 50% inhibitory concentration (EC50) was calculated by using the exponential form of the median effect equation where percent inhibition=1/[1+(EC50/drug concentration)m], where m is a parameter that reflects the slope of the concentration-response curve.

Cn1nc(NS(C)(=O)=O)c2c(Cl)ccc(-n3c([C@H](Cc4cc(F)cc(F)c4)NC(=O)Cn4nc(C(F)F)c5c4C(F)(F)[C@@H]4C[C@H]54)nc4cc(OCC5CCCC5)ccc4c3=O)c21 (atropisomer, axis not shown; (P)) [Example 2, N—((S)-1-((3P)-3-(4-chloro-1-methyl-3-(methylsulfonamido)-1H-indazol-7-yl)-7-(cyclopentylmethoxy)-4-oxo-3,4-dihydroquinazolin-2-yl)-2-(3,5-difluorophenyl)ethyl)-2-((3bS,4aR)-3-(difluoromethyl)-5,5-difluoro-3b,4,4a,5-tetrahydro-1H-cyclopropa[3,4]cyclopenta[1,2-c]pyrazol-1-yl)acetamide]
CC50 at 4 days [1]: > 1000 nM | EC50 [2]: 0.18 nM

Cn1nc(NS(C)(=O)=O)c2c(Cl)ccc(-n3c([C@H](Cc4cc(F)cc(F)c4)NC(=O)Cn4nc(C(F)F)c5c4C(F)(F)[C@@H]4C[C@H]54)nc4cc(OCC5CCCCC5)ccc4c3=O)c21 (atropisomer, axis not shown; (P)) [Example 3, N—((S)-1-((3P)-3-(4-chloro-1-methyl-3-(methylsulfonamido)-1H-indazol-7-yl)-7-(cyclohexylmethoxy)-4-oxo-3,4-dihydroquinazolin-2-yl)-2-(3,5-difluorophenyl)ethyl)-2-((3bS,4aR)-3-(difluoromethyl)-5,5-difluoro-3b,4,4a,5-tetrahydro-1H-cyclopropa[3,4]cyclopenta[1,2-c]pyrazol-1-yl)acetamide]
CC50 at 4 days [1]: > 1000 nM | EC50 [2]: 0.47 nM

Cn1nc(NS(C)(=O)=O)c2c(Cl)ccc(-n3c([C@H](Cc4cc(F)cc(F)c4)NC(=O)Cn4nc(C(F)F)c5c4C(F)(F)[C@@H]4C[C@H]54)nc4cc(OCCN5CCS(=O)(=O)CC5)ccc4c3=O)c21 (atropisomer, axis not shown; (P)) [Example 4, N—((S)-1-((3P)-3-(4-chloro-1-methyl-3-(methylsulfonamido)-1H-indazol-7-yl)-7-(2-(1,1-dioxidothiomorpholino)ethoxy)-4-oxo-3,4-dihydroquinazolin-2-yl)-2-(3,5-difluorophenyl)ethyl)-2-((3bS,4aR)-3-(difluoromethyl)-5,5-difluoro-3b,4,4a,5-tetrahydro-1H-cyclopropa[3,4]cyclopenta[1,2-c]pyrazol-1-yl)acetamide]
CC50 at 4 days [1]: > 1000 nM | EC50 [2]: 0.08 nM

Cn1nc(NS(C)(=O)=O)c2c(Cl)ccc(-n3c([C@H](Cc4cc(F)cc(F)c4)NC(=O)Cn4nc(C(F)F)c5c4C(F)(F)[C@@H]4C[C@H]54)nc4cc(OCCOc5ccccc5)ccc4c3=O)c21 (atropisomer, axis not shown; (P)) [Example 5, N—((S)-1-((3P)-3-(4-chloro-1-methyl-3-(methylsulfonamido)-1H-indazol-7-yl)-4-oxo-7-(2-phenoxyethoxy)-3,4-dihydroquinazolin-2-yl)-2-(3,5-difluorophenyl)ethyl)-2-((3bS,4aR)-3-(difluoromethyl)-5,5-difluoro-3b,4,4a,5-tetrahydro-1H-cyclopropa[3,4]cyclopenta[1,2-c]pyrazol-1-yl)acetamide]
CC50 at 4 days [1]: > 1000 nM | EC50 [2]: 0.36 nM

Cn1nc(NS(C)(=O)=O)c2c(Cl)ccc(-n3c([C@H](Cc4cc(F)cc(F)c4)NC(=O)Cn4nc(C(F)F)c5c4C(F)(F)[C@@H]4C[C@H]54)nc4cc(OCCC(C)(C)C)ccc4c3=O)c21 (atropisomer, axis not shown; (P)) [Example 6, N—((S)-1-((3P)-3-(4-chloro-1-methyl-3-(methylsulfonamido)-1H-indazol-7-yl)-7-(3,3-dimethylbutoxy)-4-oxo-3,4-dihydroquinazolin-2-yl)-2-(3,5-difluorophenyl)ethyl)-2-((3bS,4aR)-3-(difluoromethyl)-5,5-difluoro-3b,4,4a,5-tetrahydro-1H-cyclopropa[3,4]cyclopenta[1,2-c]pyrazol-1-yl)acetamide]
CC50 at 4 days [1]: > 1000 nM | EC50 [2]: 0.18 nM

Cn1nccc1CCOc1ccc2c(=O)n(-c3ccc(Cl)c4c(NS(C)(=O)=O)nn(C)c34)c([C@H](Cc3cc(F)cc(F)c3)NC(=O)Cn3nc(C(F)F)c4c3C(F)(F)[C@@H]3C[C@H]43)nc2c1 (atropisomer, axis not shown; (P)) [Example 7, N—((S)-1-((3P)-3-(4-chloro-1-methyl-3-(methylsulfonamido)-1H-indazol-7-yl)-7-(2-(1-methyl-1H-pyrazol-5-yl)ethoxy)-4-oxo-3,4-dihydroquinazolin-2-yl)-2-(3,5-difluorophenyl)ethyl)-2-((3bS,4aR)-3-(difluoromethyl)-5,5-difluoro-3b,4,4a,5-tetrahydro-1H-cyclopropa[3,4]cyclopenta[1,2-c]pyrazol-1-yl)acetamide]
CC50 at 4 days [1]: > 1000 nM | EC50 [2]: 0.074 nM

Cn1nc(NS(C)(=O)=O)c2c(Cl)ccc(-n3c([C@H](Cc4cc(F)cc(F)c4)NC(=O)Cn4nc(C(F)F)c5c4C(F)(F)[C@@H]4C[C@H]54)nc4cc(OC5CCCC5)ccc4c3=O)c21 (atropisomer, axis not shown; (P)) [Example 9, N—((S)-1-((3P)-3-(4-chloro-1-methyl-3-(methylsulfonamido)-1H-indazol-7-yl)-7-(cyclopentyloxy)-4-oxo-3,4-dihydroquinazolin-2-yl)-2-(3,5-difluorophenyl)ethyl)-2-((3bS,4aR)-3-(difluoromethyl)-5,5-difluoro-3b,4,4a,5-tetrahydro-1H-cyclopropa[3,4]cyclopenta[1,2-c]pyrazol-1-yl)acetamide]
CC50 at 4 days [1]: > 1000 nM | EC50 [2]: 0.22 nM

Cn1nc(NS(C)(=O)=O)c2c(Cl)ccc(-n3c([C@H](Cc4cc(F)cc(F)c4)NC(=O)Cn4nc(C(F)F)c5c4C(F)(F)[C@@H]4C[C@H]54)nc4cc(OC5CCOCC5)ccc4c3=O)c21 (atropisomer, axis not shown; (P)) [Example 10, N—((S)-1-((3P)-3-(4-chloro-1-methyl-3-(methylsulfonamido)-1H-indazol-7-yl)-4-oxo-7-((tetrahydro-2H-pyran-4-yl)oxy)-3,4-dihydroquinazolin-2-yl)-2-(3,5-difluorophenyl)ethyl)-2-((3bS,4aR)-3-(difluoromethyl)-5,5-difluoro-3b,4,4a,5-tetrahydro-1H-cyclopropa[3,4]cyclopenta[1,2-c]pyrazol-1-yl)acetamide]
CC50 at 4 days [1]: > 1000 nM | EC50 [2]: 0.036 nM

Cn1nc(NS(C)(=O)=O)c2c(Cl)ccc(-n3c([C@H](Cc4cc(F)cc(F)c4)NC(=O)Cn4nc(C(F)F)c5c4C(F)(F)[C@@H]4C[C@H]54)nc4cc(OCc5cncnc5)ccc4c3=O)c21 (atropisomer, axis not shown; (P)) [Example 11, N—((S)-1-((3P)-3-(4-chloro-1-methyl-3-(methylsulfonamido)-1H-indazol-7-yl)-4-oxo-7-(pyrimidin-5-ylmethoxy)-3,4-dihydroquinazolin-2-yl)-2-(3,5-difluorophenyl)ethyl)-2-((3bS,4aR)-3-(difluoromethyl)-5,5-difluoro-3b,4,4a,5-tetrahydro-1H-cyclopropa[3,4]cyclopenta[1,2-c]pyrazol-1-yl)acetamide]
CC50 at 4 days [1]: > 1000 nM | EC50 [2]: 0.066 nM

Cn1nc(NS(C)(=O)=O)c2c(Cl)ccc(-n3c([C@H](Cc4cc(F)cc(F)c4)NC(=O)Cn4nc(C(F)F)c5c4C(F)(F)[C@@H]4C[C@H]54)nc4cc(OCC5CCC5)ccc4c3=O)c21 (atropisomer, axis not shown; (P)) [Example 12, N—((S)-1-((3P)-3-(4-chloro-1-methyl-3-(methylsulfonamido)-1H-indazol-7-yl)-7-(cyclobutylmethoxy)-4-oxo-3,4-dihydroquinazolin-2-yl)-2-(3,5-difluorophenyl)ethyl)-2-((3bS,4aR)-3-(difluoromethyl)-5,5-difluoro-3b,4,4a,5-tetrahydro-1H-cyclopropa[3,4]cyclopenta[1,2-c]pyrazol-1-yl)acetamide]
CC50 at 4 days [1]: > 1000 nM | EC50 [2]: 0.15 nM

Cn1nc(NS(C)(=O)=O)c2c(Cl)ccc(-n3c([C@H](Cc4cc(F)cc(F)c4)NC(=O)Cn4nc(C(F)F)c5c4C(F)(F)[C@@H]4C[C@H]54)nc4cc(OCCn5cccn5)ccc4c3=O)c21 (atropisomer, axis not shown; (P)) [Example 13, N—((S)-1-(7-(2-(1H-pyrazol-1-yl)ethoxy)-(3P)-3-(4-chloro-1-methyl-3-(methylsulfonamido)-1H-indazol-7-yl)-4-oxo-3,4-dihydroquinazolin-2-yl)-2-(3,5-difluorophenyl)ethyl)-2-((3bS,4aR)-3-(difluoromethyl)-5,5-difluoro-3b,4,4a,5-tetrahydro-1H-cyclopropa[3,4]cyclopenta[1,2-c]pyrazol-1-yl)acetamide]
CC50 at 4 days [1]: > 1000 nM | EC50 [2]: 0.032 nM
